Data reported in US20250289785A1, “INDOLE DERIVATIVE, METHOD FOR PREPARING SAME, AND USE THEREOF” (MITOIMMUNE THERAPEUTICS INC., priority 2021, published 2025).
pEC50: −log10 of the molar value. Read-outs that look alike come from different tables or passages of the source.

Experiments:
NRK-49F cells = assay: Cell death protective effect in renal fibroblasts against Erastin, glutamate and RSL3 (LDH); format: cell-based, rat; conditions: 24 h
Description: In order to identify the protective effect on renal fibroblasts, NRK-49F cells were divided into 96-well plates by 1×10^4 and cultured for 18 to 24 hours. The compounds of Examples were diluted to final concentrations of 0.1 and 1. μM, treated in each well, and incubated for 15 to 20 minutes. Erastin, glutamate, and RSL3 were treated to have final concentrations of 3 μM, 75 mM, and 3 μM, respectively, and cultured for 24 hours. In order to identify the protective effect of each compound, the degree of LDH extracellular secretion was measured using cytotoxicity LDH assay kit [Dojindo; CK12]. Briefly, at the time when the treatment of the cells with Erastin, glutamate, and RSL3 for 24 hours is completed, the supernatants containing the cells are taken by 70 μL and transferred to a new 96-well plate. The assay buffer included in the kit is added in an amount of 70 μL/well (the same amount as the sample) thereto, and then the plate is wrapped with a foil and the reaction is performed at room temperature for 15 minutes.

H9C2 cells [1] = assay: Cell protection effect against t-BHP in heart cells (LDH release); format: cell-based; conditions: H9C2, t-BHP 40 μM, 2 hours
Description: In order to identify the protective effect with regard to heart cells, H9C2 cells were divided into 96-well plates by 1.5×10^4, and cultured for 24 hours. The respective wells were treated with compounds of the examples 3× serial diluted to final concentrations of […], then cultured for 15 to 20 minutes. After treating with t-BHP with a final concentration of 40 μM, culturing was performed for 2 hours. In order to identify the protective effect of each compound, a Cytotoxicity LDH assay kit [Dojindo; CK12] was used to measure the degree of extracellular secretion of LDH. To describe briefly, at the time point 2-hour treatment of the cells with t-BHIP was completed, 100 μL each of the supernatant in which the cells were placed was collected and moved to a new 96-well plate. 100 μL/well of the assay buffer included in the kit (same amount as the sample) was added, followed by wrapping with foil and reacting for 30 minutes at room temperature. Observing the change in color of the sample, 50 μL/well of stop solution was added, then an iD3 spectrometer was used to measure absorbance at 490 nm and calculate the EC50 values. The EC50 of the compounds of the examples is preferably no more than 1.0 μM, and more preferably no more than 0.3 μM.

H9C2 cells [2] = assay: Maintenance of intracellular calcium level in heart cells treated with t-BHP (FLIPR Calcium 6); format: cell-based, rat; conditions: H9C2, t-BHP 150 μM
Description: To examine the maintenance effect on calcium level in heart cells, H9C2 cells were divided into a 96-well plate by 1.5×10^4 cells/well and cultured for 24 hours. To measure intracellular calcium level, a FLIPR Calcium 6 assay kit (Molecular devices; #R8190) was used. Following the experimental method provided by the manufacturer, cells were treated with probenecid and calcium-sensitive dye for 1.75 hours, and then the cells were treated with the compound of Example 2 for 0.25 hours (the final concentration of the compound was 0.02 or 0.01 μM). And the cells were treated with t-BHP to a final concentration of 150 μM, then intracellular calcium level was measured every 30 seconds in real time.
FIG. 1 is a graph regarding the regulatory effect of the compound of Example 2 on calcium level under t-BHP treatment. The ΔF/F(Max−Min) value on the vertical axis is the difference between the maximum and minimum fluorescence intensity values of the calcium-sensitive dye after treatment with t-BHP (150 μM), and this value increases as intracellular calcium level increases.

[3] = Plasma and brain concentration after oral administration to ICR mice (HPLC-MS/MS); format: in vivo; conditions: 10 mg/kg; for concentration at 2 h / concentration at 24 h / AUC(0-t): ICR, mouse, po
Description: […] parameters can be represented as maximum concentration in plasma (Cmax), time taken until maximum concentration in plasma (Tmax), area under the plasma concentration-time curve (AUClast and AUCinf), and half-life (t1/2), and the like.
The compound of example 2 was orally administered to ICR mice at a dose of 10 mg/kg, and drug concentration in mouse plasma was measured using HPLC-MS/MS spectroscopy at 0.5, 1, 2, 4, 8 and 24 hours. The mouse brains were removed at 2 or 24 hours, and drug concentration in the brain was measured using HPLC-MS/MS spectroscopy. The area under the plasma concentration v. time curve (AUCinf) was measured to be […], and at 2 hours after administration drug concentration in plasma was 546 ng/mL and brain drug concentration was measured at 1043 ng/mL. […] Further, at 24 hours after administration, for Embodiment 2, drug concentration in plasma was measured to be 4.7 ng/mL and drug concentration in the brain was measured at 5.7 ng/mL. With the brain-plasma drug concentration ratio at 1.23, drug exposure in the brain was still high.
The Comparative Example compound was orally administered to ICR mice at a dose of 10 mg/kg, and drug concentration in mouse plasma was measured using HPLC-MS/MS spectroscopy at 0.5, 1, 2, 4, 8 and 24 hours. The mouse brains were removed at 2 or 24 hours, and drug concentration in the brain was measured using HPLC-MS/MS spectroscopy.

[4] = Glutamate, 75 mM, compound 0.1 μM
[5] = Glutamate, 75 mM, compound 1.0 μM
[6] = ICR mouse, 2 hours after administration

SMILES | inhibition (%) (NRK-49F cells; Erastin, 3 μM, compound 0.1 μM) | inhibition (%) (NRK-49F cells; Erastin, 3 μM, compound 1.0 μM) | inhibition (%) (NRK-49F cells; [4]) | inhibition (%) (NRK-49F cells; [5]) | inhibition (%) (NRK-49F cells; RSL3, 3 μM, compound 0.1 μM) | inhibition (%) (NRK-49F cells; RSL3, 3 μM, compound 1.0 μM) | pEC50 (H9C2 cells [1]) | also measured
COCc1cc(NC2CCCC2)c2[nH]c(-c3ccccc3)cc2c1 [Example 2, N-cyclopentyl-5-(methoxymethyl)-2-phenyl-1H-indol-7-amine] | 97 | 94 | 100 | 100 | 98 | 97 | ≥ 6.52 | intracellular calcium level, ΔF/F(Max−Min) (H9C2 cells [2]; compound 0.01 μM): significantly decreased; intracellular calcium level, ΔF/F(Max−Min) (H9C2 cells [2]; compound 0.02 μM): within normal range; brain drug concentration [3, 6]: 1043.2 ng/mL; drug concentration in plasma [3, 6]: 546.1 ng/mL; AUClast, Brain ([3]; ICR mouse, from the 2 and 24 hr samples): 12581.1 ng·h/g; AUC(0-inf) ([3]; ICR mouse, plasma, read-out: area under the plasma concentration v. time curve (AUCinf)): 4960 ng·h/mL; concentration at 2 h ([3]; brain, 2 hours after administration, read-out: brain drug concentration): 1040 ng/mL; concentration at 24 h ([3]; brain, 24 hours after administration, read-out: drug concentration in the brain): 5.7 ng/mL; concentration at 2 h ([3]; plasma, 2 hours after administration, read-out: drug concentration in plasma): 546 ng/mL; concentration at 24 h ([3]; plasma, 24 hours after administration, read-out: drug concentration in plasma): 4.7 ng/mL; AUC(0-t) ([3]; plasma, from the 2 and 24 hr samples, read-out: AUClast, Plasma): 6600 ng·h/mL; AUC(0-t) ([3]; plasma, plasma, read-out: 0.5~24 hr AUClast): 4940 ng·h/mL; AUC(0-t) ([3]; plasma, plasma, read-out: area under the plasma concentration v. time curve (AUClast)): 4940 ng·h/mL; Kp at 2 h ([3]; brain/plasma, ICR mouse, 2 hours after administration, read-out: brain-plasma drug concentration ratio (B/P ratio)): 1.91; Kp at 24 h ([3]; brain/plasma, ICR mouse, 24 hours after administration, read-out: brain-plasma drug concentration ratio (B/P ratio)): 1.23; Kp ([3]; brain/plasma, ICR mouse, read-out: AUClast B/P ratio): 1.9
COCc1cc(NC2CCOCC2)c2[nH]c(-c3ccccc3)cc2c1 [Example 1, 5-(methoxymethyl)-2-phenyl-N-tetrahydropyran-4-yl-1H-indol-7-amine] | 96 | 95 | 100 | 100 | 98 | 98 | ≥ 6.52 | 
COCc1cc(NC2CC[S+]([O-])CC2)c2[nH]c(-c3ccccc3)cc2c1 (centres unmarked) [Example 14, 5-(methoxymethyl)-N-(1-oxothian-4-yl)-2-phenyl-1H-indol-7-amine] | 96 | 93 | 100 | 100 | 97 | 97 | ≥ 6.52 | 
CCOCc1cc(NC2CCCC2)c2[nH]c(-c3ccccc3)cc2c1 [Example 19, N-cyclopentyl-5-(ethoxymethyl)-2-phenyl-1H-indol-7-amine] | 96 | 95 | 100 | 100 | 97 | 96 | ≥ 6.52 | 
COCCc1cc(NC2CCOCC2)c2[nH]c(-c3ccccc3)cc2c1 [Example 41, 5-(2-methoxyethyl)-2-phenyl-N-(tetrahydro-2H-pyran-4-yl)-1H-indol-7-amine] | 96 | 94 | 100 | 100 | 97 | 97 | ≥ 6.52 | 
CCOCc1cc(NC2CCOCC2)c2[nH]c(-c3ccccc3)c(-c3ncc[nH]3)c2c1 [Example 46, 5-(ethoxymethyl)-3-(1H-imidazol-2-yl)-2-phenyl-N-(tetrahydro-2H-pyran-4-yl)-1H-indole-7-amine] | 5 | 64 | 13 | 16 | 0 | 5 | < 6.00 | 
CCOC(=O)c1ccc(NC2CCCCC2)c(N)c1 [Ferrostatin-1, reference compound] | 98 | 97 | 90 | 100 | 97 | 97 |  | 
CCOCc1cc(NC2CCOCC2)c2c(c1)c(COC)c(-c1ccccc1)n2C [Example 29, 5-(ethoxymethyl)-3-(methoxymethyl)-1-methyl-2-phenyl-N-(tetrahydro-2H-pyran-4-yl)-1H-indol-7-amine] | 3 | 93 | 17 | 100 | 0 | 96 | 6.00 to 6.52 | 
